The supplement of paper PMC10307832

Legend:
Assay in all cases: relative viability (nuclei count vs DMSO), 5 days (fraction); higher = more cells survive
[1] = compound: NCC(=O)Nc1ccc(-n2nc(C(F)(F)F)cc2-c2ccc3c(ccc4ccccc43)c2)cc1 + Cc1nc(Nc2ncc(C(=O)Nc3c(C)cccc3Cl)s2)cc(N2CCN(CCO)CC2)n1 [Dasatinib] (partner 0.075 µM)
In short: (§1)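 Medians of duplicate plates are given as relative viability. That measure is the nuclei count in treated wells divided by the count in vehicle wells. Counts were taken on 4× images of lung cancer cell lines in 1536-well plates, 5 days after pin-tool dosing the day after seeding with one drug alone or a fixed anchor-drug dose plus five library-drug doses (not always all listed) in √10 steps.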

[2] = compound: C1CSC2=C(C(=O)N1)SC3=C2C=C(C=C3)O [kb NB 142-70] + O=C(CCCCCCC(=O)Nc1ccccc1)NO [Vorinostat] (partner 1 µM)
In short: as §1

[3] = compound: NCC(=O)Nc1ccc(-n2nc(C(F)(F)F)cc2-c2ccc3c(ccc4ccccc43)c2)cc1 + C[C@]1(O)C[C@@H](c2nc(-c3ccc4ccc(-c5ccccc5)nc4c3)c3c(N)nccn32)C1 [Linsitinib] (partner 1 µM)
In short: as §1

kb NB 142-70 + Alpelisib = compound: C1CSC2=C(C(=O)N1)SC3=C2C=C(C=C3)O [kb NB 142-70] + Cc1nc(NC(=O)N2CCC[C@H]2C(N)=O)sc1-c1ccnc(C(C)(C)C(F)(F)F)c1 [Alpelisib] (partner 2 µM)
In short: as §1

Cell Line: UMC-11
- relative viability ([1]; first compound 0.02 µM): 0.426
- relative viability ([1]; first compound 0.06325 µM): 0.416
- relative viability ([1]; first compound 0.2 µM): 0.466
- relative viability ([1]; first compound 0.6325 µM): 0.432
- relative viability ([1]; first compound 2 µM): 0.42
- relative viability ([2]; first compound 0.1 µM): 0.39
- relative viability ([2]; first compound 1 µM): 0.316
- relative viability ([2]; first compound 3.162 µM): 0.223
- relative viability ([3]; first compound 0.02 µM): 0.995
- relative viability ([3]; first compound 0.06325 µM): 1.03
- relative viability ([3]; first compound 0.2 µM): 1.16
- relative viability ([3]; first compound 0.6325 µM): 0.966
- relative viability ([3]; first compound 2 µM): 0.918
- relative viability (kb NB 142-70 + Alpelisib; first compound 0.1 µM): 0.96
- relative viability (kb NB 142-70 + Alpelisib; first compound 1 µM): 0.959
- relative viability (kb NB 142-70 + Alpelisib; first compound 3.162 µM): 0.418
